Assay results from a melting point compilation (Tetko et al.).

| melting point | Structure (SMILES) |
| --- | --- |
| 79 to 81 °C | Cc1[nH]c2ccccc2c1CC#N |
| 197 to 199 °C | O=C(O)C1CCCN1C1CCNCC1 (stereo not drawn) |
| 99 to 101 °C | O=Cc1csc(-c2ccc(F)cc2)n1 |
| 51 to 53 °C | CCOC(=O)C(=O)CC(=O)c1ccc(OC)cc1 |
| 299 to 301 °C | Cn1c(Cl)nc2c1c(=O)[nH]c(=O)n2C |
| 159 to 161 °C | O=C(O)C1CC(=O)N(CCN2CCOCC2)C1 (stereo not drawn) |
| 223 to 225 °C | O=C1COc2cc(S(=O)(=O)Cl)c(Br)cc2N1 |
| 139 to 141 °C | C#CCNC(=O)c1ccc(Cl)nc1 |
| 139 to 141 °C | NC(=O)NCc1ccccn1 |
| 183 to 187 °C | O=C(O)C1=NC=CN2CCS(=O)(=O)N=C12 |
| 188 to 190 °C | Cc1ccccc1-c1nnc(S)o1 |
| 184 to 186 °C | Nc1ccc(N2CCCC2=O)c(Cl)c1 |
| 74 to 76 °C | CC(C)(C)OC(=O)N1CCCC(COCC(=O)O)C1 (stereo not drawn) |
| 203 to 204 °C | Cc1cc2nc(Cl)cc(=O)n2o1 |
| 130 to 135 °C | CC(Cl)C(=O)Nc1ccc(S(=O)(=O)N2CCCCC2)cc1 (stereo not drawn) |
| 195 to 197 °C | Clc1nccn2cnnc12 |
| 109 to 111 °C | C1CCC(c2nnn[nH]2)CC1 |
| 158 to 160 °C | Nc1ccc(Cl)c(S(=O)(=O)Nc2cccc(Cl)c2)c1 |
| 196 to 198 °C | N#Cc1ccc(Cc2cnc(N)s2)c(C(F)(F)F)c1 |
| 211 to 213 °C | O=C(O)C1CCN(C(=O)C2CC2)CC1 |
| 166 to 168 °C | Cc1ccc(C)c(-n2cnc(O)n2)c1 |
| 175 to 177 °C | O=C(NC1CCNCC1)c1ccc(F)cc1 |
| 113 to 115 °C | O=C1CCCc2c1sc1ccccc21 |
| 80 to 82 °C | CCOC(=O)Nc1snc(C)c1C(C)=O |
| 154 to 156 °C | c1cc(-c2ccn[nH]2)ccn1 |
| 121 to 124 °C | Nc1ccc(CCCC(=O)O)cc1 |
| 265 to 267 °C | CC(=O)Nc1ccc(NS(C)(=O)=O)c(C(=O)O)c1 |

| melting point | Structure (SMILES) |
| --- | --- |
| 243 to 245 °C | Nc1nc2nc(-c3cccs3)cc(C(F)(F)F)c2s1 |
| 84 to 86 °C | CCOCCCNC(N)=S |
| 169 to 171 °C | Cc1cc(N)ccc1S(N)(=O)=O |
| 173 to 175 °C | CCC(Nc1nc(C)cs1)C(=O)O (stereo not drawn) |
| 61 to 63 °C | Cc1ccc(C(C)C)c(OC(C)C(=O)O)c1 (stereo not drawn) |
| 152 to 154 °C | Cn1c(N)nc2cc(F)ccc21 |
| 127 to 129 °C | Nc1cccc(S(=O)(=O)Nc2ccccc2)c1 |
| 201 to 203 °C | COc1ccc(C(=O)O)cc1S(=O)(=O)NC1CCCCC1C (stereo not drawn) |
| 154 to 156 °C | CC(=O)Nc1cccc(N=C=S)c1 |
| 159 to 161 °C | O=C(O)c1cccc(-n2ccc(C(F)(F)F)n2)c1 |
| 127 to 129 °C | Cc1n[nH]c(C2CCCCC2)n1 |
| 119 to 121 °C | NC(=S)NCc1ccc(F)cc1 |
| 250 to 252 °C | COc1ccc(-c2nnc(S)[nH]2)c(OC)c1 |
| 49 to 51 °C | CCOC(=O)CS(=O)(=O)Cc1ccccc1 |
| 168 to 170 °C | N#Cc1cc(Cl)nc2ccc(Cl)cc12 |
| 63 to 65 °C | CC(C)(C)OC(=O)NCc1ccc2c(c1)CCCN2 |
| 144 to 146 °C | CC(=O)c1cc([N+](=O)[O-])ccc1N |
| 75 to 77 °C | O=Cc1ccc(Cl)nc1 |
| 80 to 82 °C | O=C(CCl)NCC#Cc1cccc(C(F)(F)F)c1 |
| 99 to 101 °C | O=C(NO)c1occc1CSc1ccccc1 |
| 84 to 86 °C | O=C(O)C1SCCS1 |
| 269 to 271 °C | NC(=O)Nc1cccc(C(=O)O)c1 |
| 194 to 196 °C | Cc1cc(/C=C/C(=O)O)c(C)n1-c1ccc2c(c1)OCO2 |
| 123 to 125 °C | CN(CCO)C(=O)c1ccc(O)cc1 |
| 90 to 92 °C | O=S(=O)(c1ccc2c(c1)CCC2)N1CCNCC1 |
| 84 to 86 °C | CC(COc1ccccc1)C(=O)O (stereo not drawn) |
| 65 to 67 °C | CNc1cccc([N+](=O)[O-])c1 |

| Structure (SMILES) | melting point |
| --- | --- |
| N#Cc1c(O)c(Cl)c(Cl)c(C#N)c1Cl | 256 to 258 °C |
| ClCc1cnc(Cl)s1 | 31 to 33 °C |
| O=[N+]([O-])c1n[nH]cc1Br | 193 to 195 °C |
| C1CC2OC1C1CNCC21 (stereo not drawn) | 53 to 55 °C |
